Experimental data reported in PMC5908784, “Extracellular loops 2 and 3 of the calcitonin receptor selectively modify agonist binding and efficacy” (Biochemical Pharmacology, 2018).
Changes are numbered by the printed parent chain. Where a SMILES comes first, the peptide text is derived from it. Bridges are numbered along the chain shown (N, C = ends).

What was measured:
Test in all cases: Heterologous whole cell competition binding
Details in all cases: heterologous competition of 125I-sCT(8-32), whole cells, mean ± S.E.M., SEM
hCTR L297A = molecular target: T1, hCTR L297A (Homo sapiens, UniProt P30988, L297A)
T1 construct: c-Myc (N); expressed in transfected cells
T1 sequence (P30988 25-474 L297A): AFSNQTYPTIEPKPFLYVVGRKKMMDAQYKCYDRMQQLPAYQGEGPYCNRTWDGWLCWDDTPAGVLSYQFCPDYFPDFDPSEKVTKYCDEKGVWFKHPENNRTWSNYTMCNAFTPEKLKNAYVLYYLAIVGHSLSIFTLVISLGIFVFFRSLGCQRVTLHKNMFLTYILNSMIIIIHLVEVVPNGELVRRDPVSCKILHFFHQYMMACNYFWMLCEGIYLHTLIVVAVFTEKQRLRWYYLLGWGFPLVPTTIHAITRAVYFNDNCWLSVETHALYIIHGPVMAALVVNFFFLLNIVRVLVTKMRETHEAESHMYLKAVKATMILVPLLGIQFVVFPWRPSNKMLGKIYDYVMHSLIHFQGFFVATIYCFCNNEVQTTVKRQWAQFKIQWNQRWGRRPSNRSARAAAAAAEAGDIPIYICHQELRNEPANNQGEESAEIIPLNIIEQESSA
Method: (§1) Following overnight incubation non-bound ligand was removed and radioactivity was determined using a gamma counter.
(§2) Data were corrected for radioligand occupancy using the Cheng-Prusoff equation in Prism; as such data are reported as pKi. Emax and EC50 were estimated from concentration-response curves using with a 3-parameter logistic equation in Prism (v7). These values are a composite of functional affinity, efficacy and stimulus response coupling. […] Significance was accepted at P < 0.05.

hCTR V283A = molecular target: T2, hCTR V283A (Homo sapiens, UniProt P30988, V283A)
T2 construct: expressed in transfected cells
T2 sequence (P30988 25-474 V283A): T1 sequence (P30988 25-474 L297A) with V259A, A273L
Method: as §1, §2

hCTR V375A = molecular target: T3, hCTR V375A (Homo sapiens, UniProt P30988, V375A)
T3 construct: c-Myc (N); expressed in transfected cells
T3 sequence (P30988 25-474 V375A): T1 sequence (P30988 25-474 L297A) with A273L, V351A
Method: as §1, §2

hCTR W361A = molecular target: T4, hCTR W361A (Homo sapiens, UniProt P30988, W361A)
T4 construct: expressed in transfected cells
T4 sequence (P30988 25-474 W361A): T1 sequence (P30988 25-474 L297A) with A273L, W337A
Method: as §1, §2

hCTR Y299A = molecular target: T5, hCTR Y299A (Homo sapiens, UniProt P30988, Y299A)
T5 construct: c-Myc (N); expressed in transfected cells
T5 sequence (P30988 25-474 Y299A): T1 sequence (P30988 25-474 L297A) with A273L, Y275A
Method: as §1, §2

Ki (hCTR L297A): 15.5 nM
Ki (hCTR V283A): 15.1 nM
Ki (hCTR V375A): 5.13 nM
Ki (hCTR W361A): 33.9 nM
Ki (hCTR Y299A): 46.8 nM
Structure (SMILES): CSCC[C@H](NC(=O)CNC(=O)[C@H](CO)NC(=O)[C@H](Cc1ccccc1)NC(=O)[C@H](CCCNC(=N)N)NC(=O)[C@H](Cc1c[nH]cn1)NC(=O)[C@H](Cc1ccccc1)NC(=O)[C@H](CC(N)=O)NC(=O)[C@H](CC(N)=O)NC(=O)[C@H](CC(C)C)NC(=O)[C@H](CC(N)=O)NC(=O)[C@H](CCCNC(=N)N)NC(=O)[C@H](Cc1c[nH]c2ccccc12)NC(=O)[C@H](Cc1ccc(O)cc1)NC(=O)[C@H](C)NC(=O)[C@H](CO)NC(=O)[C@H](CC(C)C)NC(=O)[C@@H](NC(=O)[C@@H]1CSSC[C@H](N)C(=O)N[C@@H](CO)C(=O)N[C@@H](CC(N)=O)C(=O)N[C@@H](CC(C)C)C(=O)N[C@@H](CO)C(=O)N[C@@H]([C@@H](C)O)C(=O)N1)C(C)C)C(=O)NCC(=O)N[C@@H](Cc1ccccc1)C(=O)NCC(=O)N1CCC[C@H]1C(=O)N[C@@H](CCC(=O)O)C(=O)N[C@H](C(=O)N1CCC[C@H]1C(N)=O)[C@@H](C)O [pCT] (H-CSNLSTCVLSAYWRNLNNFHRFSGMGFGPETP-NH2; disulfide 1-7)
